Assay results taken from PubChem BioAssay (NCI).
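96-well plates; 48 h exposure; 5 concentrations. Endpoints by linear interpolation between flanking doses. Not reached: highest tested concentration assigned. At the TGI there is no net growth.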

How the values were obtained:
Assay in all cases: DTP human tumour cell line panel, 48 h
[1] = tested on: BT-549 breast
[2] = tested on: MDA-N
[3] = tested on: MCF7 breast
[4] = tested on: SF-295 CNS
[5] = tested on: LOX IMVI melanoma
[6] = tested on: HOP-62 NSCLC
[7] = tested on: MDA-MB-231 breast
[8] = tested on: SNB-75 CNS
[9] = tested on: MOLT-4 leukemia
[10] = tested on: CAKI-1 renal
[11] = tested on: MDA-MB-435
[12] = tested on: HS 578T breast
[13] = tested on: UACC-257 melanoma
[14] = tested on: M14 melanoma
[15] = tested on: SN12C renal
[16] = tested on: A498 renal
[17] = tested on: NCI-H226 lung
[18] = tested on: IGROV1 ovarian
[19] = tested on: SK-OV-3 ovarian
[20] = tested on: ACHN renal
[21] = tested on: TK-10 renal
[22] = tested on: HT29 colon
[23] = tested on: RPMI-8226 leukemia
[24] = tested on: A549 NSCLC
[25] = tested on: SR leukemia
[26] = tested on: SK-MEL-5 melanoma
[27] = tested on: SNB-19 CNS
[28] = tested on: HOP-92 NSCLC
[29] = tested on: UO-31 renal
[30] = tested on: OVCAR-4 ovarian
[31] = tested on: SF-539 CNS
[32] = tested on: SW-620 colon
[33] = tested on: EKVX NSCLC
[34] = tested on: MALME-3M melanoma
[35] = tested on: COLO 205 colon
[36] = tested on: HCT-116 colon
[37] = tested on: HCT-15 colon
[38] = tested on: 786-0 renal
[39] = tested on: OVCAR-8 ovarian
[40] = tested on: RXF 393 renal
[41] = tested on: OVCAR-3 ovarian
[42] = tested on: SK-MEL-28 melanoma
[43] = tested on: U251 CNS
[44] = tested on: NCI/ADR-RES ovarian
[45] = tested on: K-562 leukemia
[46] = tested on: HL-60(TB) leukemia
[47] = tested on: SF-268 CNS
[48] = tested on: DU-145 prostate
[49] = tested on: KM12 colon
[50] = tested on: UACC-62 melanoma
[51] = tested on: NCI-H522 lung
[52] = tested on: HCC-2998 colon
[53] = tested on: T-47D breast
[54] = tested on: CCRF-CEM leukemia
[55] = tested on: SK-MEL-2 melanoma
[56] = tested on: OVCAR-5 ovarian
[57] = tested on: NCI-H23 lung
[58] = tested on: PC-3 prostate
[59] = tested on: NCI-H460 lung

Measured: TGI

CC(C)(C)OC(=O)N/N=C(/N)Cc1ccccc1
> 100 µM: [1] | [2] | [3] | [4] | [5] | [6] | [7] | [8] | [9] | [10] | [11] | [12] | [13] | [14] | [15] | [16] | [17] | [18] | [19] | [20] | [21] | [22] | [23] | [24] | [25] | [26] | [27] | [28] | [29] | [30] | [31] | [32] | [33] | [34] | [35] | [36] | [37] | [38] | [39] | [40] | [41] | [42] | [43] | [44] | [45] | [46] | [47] | [48] | [49] | [50] | [51] | [52] | [53] | [54] | [55] | [56] | [57] | [58]

O=C(O)CC1(CC(=O)O)Nc2ccccc2SC1=O
> 100 µM: [1] | [2] | [3] | [4] | [5] | [6] | [7] | [8] | [9] | [59] | [10] | [11] | [12] | [13] | [14] | [15] | [16] | [17] | [18] | [19] | [20] | [21] | [22] | [23] | [24] | [25] | [26] | [27] | [28] | [29] | [30] | [32] | [33] | [34] | [35] | [36] | [37] | [38] | [39] | [40] | [41] | [42] | [43] | [44] | [45] | [47] | [48] | [49] | [50] | [51] | [52] | [53] | [54] | [55] | [56] | [57] | [58]
